From US10376484B2, “Combination of bezafibrate and of resveratrol or resveratrol derivatives for the treatment and prevention of diseases involving a mitochondrial energy dysfunction” (priority 2013, dated 2019)

Legend:
Type in all cases: cell-based, human
[1] = tested on: fibroblasts of patients suffering from moderate β-oxidation deficiency; experiment: Palmitate β-oxidation, correction of deficiency, pooled statements over deficiency types; conditions: for reduction in dose by a factor, combination vs compound alone: 30 μM RSV + 35 μM BZ vs 75 μM RSV / 400 μM BZ; for reduction in dose by a factor, combination vs compound alone / concentration at which the compound alone corrects the deficiency: VLCAD and CPT2 deficiency; for concentration at which the compound alone corrects the deficiency: compound used alone; for factor by which combining the two molecules decreases the dose needed to correct the deficiency: conclusion over three types of moderate β-oxidation enzyme deficiencies
Protocol: The fibroblasts are grown at 37° C. in complete Ham's F10 medium, i.e., supplemented with 12% fetal calf serum, 100 U/ml penicillin, and 0.1 mg/ml streptomycin, at a concentration of 70,000 cells per ml and per well in 24-well culture dishes. Twenty-four hours after seeding, stock solutions of RSV (0.2 M) and of BZ (0.4 M) are prepared in DMSO in order to prepare the various cell treatment media. For the treatment, the culture medium is discarded and replaced with 1 ml of complete Ham's F10 medium supplemented with one of the molecules of interest at one of the following concentrations, 75 μM RSV, or 400 μM BZ, or 20 μM RSV, or 30 μM RSV, or 25 μM RSV, or 35 μM RSV, or the culture medium is discarded and replaced with 1 ml of complete Ham's F10 medium supplemented with a combination of the two molecules of interest at the following concentrations: (20 μM RSV+[…]), or (30 μM RSV+[…]). Additional wells receive 1 ml of complete medium supplemented with the diluent of the molecules of interest only (<0.05% DMSO). Each of these treatment conditions is applied in triplicate (3 wells) for each patient, in each experiment. The 24-well dishes are then incubated at 37° C. for 48 hours. Thus, the cells of each individual studied are treated in all of the conditions listed, in parallel, for 48 hours, before the measurement of palmitate β-oxidation. The fatty acid used is palmitate labeled with tritium at positions 9 and 10 (^3H-Pal). A stock solution is prepared beforehand by mixing 100 μl of ^3H-Pal, 130 μl of 50 mM “cold” palmitate and 13 ml of 25 mg/ml BSA solution. A ^3H-Pal/BSA (bovine serum albumin) complex ensuring good palmitate solubilization is thus obtained (final palmitate concentration: 500 μM). The test of ^3H-palmitate oxidation is carried out on fibroblasts seeded in a 24-well plate. The culture medium is first discarded and the wells are rinsed three times with PBS. A 125 μM ^3H-Pal working solution is prepared, from the 500 μM stock solution, in PBS with Ca/Mg, supplemented with 1 mM carnitine. 200 μl of t[…]-Pal solution is introduced into each well and the plates are incubated at 37° C. for 2 hours. During this time, three counting vials are prepared for the measurement of specific radioactivity (RDA, in CPM/nmol of fatty acids) of the reaction medium. These vials contain 5 ml of scintillation fluid, 1.5 ml of distilled water, and 20 μl of ^3H-Pal/BSA solution. The scintillation fluid converts the radioactive energy of ^3H into light energy, which thus makes it possible to measure radioactivity, expressed in counts per minute (CPM), using a liquid scintillation counter. At the end of 2 hours of incubation, 200 μl is taken from each well and mixed with 200 μl of 10% trichloroacetic acid (TCA). This strong acid ensures the precipitation of unmetabolized BSA/AG complex. The tubes are then centrifuged at 3300 rpm for 10 minutes at 4° C. After centrifugation, 350 μl of supernatant is taken and mixed with […] of 6 M NaOH in order to neutralize the pH. The total volume, or 450 μl, is transferred to an ion-exchange resin column which retains the tritiated water. These columns are then transferred to scintillation vials. The tritiated water is then eluted with 1.7 ml of distilled water. 5 ml of scintillation fluid is added to the tritiated water and the vials are placed in the liquid scintillation counter.

[2] = tested on: fibroblasts of patients suffering from moderate VLCAD deficiency; experiment: Tritiated palmitate β-oxidation (FAO) in fibroblasts after 48 h treatment, VLCAD deficiency; conditions: for % increase in fatty acid oxidation (FAO): 48 h, vs carrier
Protocol: (§1) Cellular palmitate β-oxidation activity can be measured with any suitable technology known to persons skilled in the art. That can in particular be achieved by using tritiated palmitate complexed with BSA (bovine albumin serum), which is added to the cells to be tested. After incubation, the addition of trichloroacetic acid (TCA) in a supernatant sample makes it possible to precipitate unmetabolized complexes (BSA/tritiated palmitate), which are excluded by centrifugation. The measurement of tritium present in the supernatant after centrifugation and exclusion of unmetabolized complexes (BSA/tritiated palmitate) makes it possible to determine the amount of palmitate metabolized by the cells. A precise example of a protocol for implementing this process for measuring palmitate β-oxidation activity is described in Example 1. The fibroblasts are grown at 37° C. in complete Ham's F10 medium, i.e., supplemented with 12% fetal calf serum, 100 U/ml penicillin, and 0.1 mg/ml streptomycin, at a concentration of 70,000 cells per ml and per well in 24-well culture dishes. Twenty-four hours after seeding, stock solutions of RSV (0.2 M) and of BZ (0.4 M) are prepared in DMSO in order to prepare the various cell treatment media. For the treatment, the culture medium is discarded and replaced with 1 ml of complete Ham's F10 medium supplemented with one of the molecules of interest at one of the following concentrations, 75 μM RSV, or 400 μM BZ, or 20 μM RSV, or 30 μM RSV, […], […], or the culture medium is discarded and replaced with 1 ml of complete Ham's F10 medium supplemented with a combination of the two molecules of interest at the following concentrations: ([…]), or ([…]). Additional wells receive 1 ml of complete medium supplemented with the diluent of the molecules of interest only (<0.05% DMSO). Each of these treatment conditions is applied in triplicate (3 wells) for each patient, in each experiment. The 24-well dishes are then incubated at 37° C. for 48 hours. Thus, the cells of each individual studied are treated in all of the conditions listed, in parallel, for 48 hours, before the measurement of palmitate β-oxidation. The fatty acid used is palmitate labeled with tritium at positions 9 and 10 (^3H-Pal). A stock solution is prepared beforehand by mixing 100 μl of ^3H-Pal, 130 μl of 50 mM “cold” palmitate and 13 ml of 25 mg/ml BSA solution. A ^3H-Pal/BSA (bovine serum albumin) complex ensuring good palmitate solubilization is thus obtained (final palmitate concentration: 500 μM). The test of ^3H-palmitate oxidation is carried out on fibroblasts seeded in a 24-well plate. The culture medium is first discarded and the wells are rinsed three times with PBS. A 125 μM ^3H-Pal working solution is prepared, from the 500 μM stock solution, in PBS with Ca/Mg, supplemented with 1 mM carnitine. 200 μl of t[…]-Pal solution is introduced into each well and the plates are incubated at 37° C. for 2 hours. During this time, three counting vials are prepared for the measurement of specific radioactivity (RDA, in CPM/nmol of fatty acids) of the reaction medium. These vials contain 5 ml of scintillation fluid, 1.5 ml of distilled water, and 20 μl of ^3H-Pal/BSA solution. The scintillation fluid converts the radioactive energy of ^3H into light energy, which thus makes it possible to measure radioactivity, expressed in counts per minute (CPM), using a liquid scintillation counter. At the end of 2 hours of incubation, 200 μl is taken from each well and mixed with 200 μl of 10% trichloroacetic acid (TCA). This strong acid ensures the precipitation of unmetabolized BSA/AG complex. The tubes are then centrifuged at 3300 rpm for 10 minutes at 4° C. After centrifugation, 350 μl of supernatant is taken and mixed with […] of 6 M NaOH in order to neutralize the pH. The total volume, or 450 μl, is transferred to an ion-exchange resin column which retains the tritiated water. These columns are then transferred to scintillation vials. […]

[3] = tested on: fibroblasts of patients suffering from moderate CPT2 deficiency; experiment: Tritiated palmitate β-oxidation (FAO) in fibroblasts after 48 h treatment, CPT2 deficiency; conditions: for % increase in fatty acid oxidation (FAO): 48 h, vs carrier
Protocol: as §1

For `CC(C)(Oc1ccc(CCNC(=O)c2ccc(Cl)cc2)cc1)C(=O)O` [BZ, 2-(4-(2-((4-chlorobenzoyl)amino)ethyl)phenoxy)-2-methylpropanoic acid], the “reduction in dose by a factor, combination vs compound alone” value [1] was 11.4, the “concentration at which the compound alone corrects the deficiency” value [1] was 400 µM and the “factor by which combining the two molecules decreases the dose needed to correct the deficiency” value [1] was 10. For the same compound, the “% increase in fatty acid oxidation (FAO)” value ([2]; patient E3536, 400 μM BZ alone) was 128%, the “% increase in fatty acid oxidation (FAO), Measured” value (“% increase … Measured” below) ([2]; patient E3536, Condition 1, 25 μM BZ alone) was 7% and the “% increase … Measured” value ([2]; patient E3536, Condition 2, 35 μM BZ alone) was 20%. For the same compound, the “% increase in fatty acid oxidation (FAO)” value ([2]; patient beta, 400 μM BZ alone) was 83%, the “% increase … Measured” value ([2]; patient beta, Condition 1, 25 μM BZ alone) was 1% and the “% increase … Measured” value ([2]; patient beta, Condition 2, 35 μM BZ alone) was 8%. The “% increase in fatty acid oxidation (FAO)” value ([3]; patient DIA Ke, 400 μM BZ alone) was 62%, the “% increase … Measured” value ([3]; patient DIA Ke, Condition 1, 25 μM BZ alone) was 0% and the “% increase … Measured” value ([3]; patient DIA Ke, Condition 2, 35 μM BZ alone) was 6%. For the same compound, the “% increase in fatty acid oxidation (FAO)” value ([3]; patient alpha, 400 μM BZ alone) was 88%, the “% increase … Measured” value ([3]; patient alpha, Condition 1, 25 μM BZ alone) was 0% and the “% increase … Measured” value ([3]; patient alpha, Condition 2, 35 μM BZ alone) was 6%.

`Oc1ccc(/C=C/c2cc(O)cc(O)c2)cc1` [RSV, 5-[(E)-2-(4-hydroxyphenyl)-ethenyl]benzene-1,3-diol] was tested, and the “reduction in dose by a factor, combination vs compound alone” value [1] was 2.5, the “concentration at which the compound alone corrects the deficiency” value [1] was 75 µM and the “factor by which combining the two molecules decreases the dose needed to correct the deficiency” value [1] was 2. For the same compound, the “% increase in fatty acid oxidation (FAO)” value ([2]; patient E3536, 75 μM RSV alone) was 145%, the “% increase … Measured” value ([2]; patient E3536, Condition 1, 20 μM RSV alone) was 81% and the “% increase … Measured” value ([2]; patient E3536, Condition 2, 30 μM RSV alone) was 106%. For the same compound, the “% increase in fatty acid oxidation (FAO)” value ([2]; patient beta, 75 μM RSV alone) was 67%, the “% increase … Measured” value ([2]; patient beta, Condition 1, 20 μM RSV alone) was 22% and the “% increase … Measured” value ([2]; patient beta, Condition 2, 30 μM RSV alone) was 43%. The “% increase in fatty acid oxidation (FAO)” value ([3]; patient DIA Ke, 75 μM RSV alone) was 44%, the “% increase … Measured” value ([3]; patient DIA Ke, Condition 1, 20 μM RSV alone) was 49% and the “% increase … Measured” value ([3]; patient DIA Ke, Condition 2, 30 μM RSV alone) was 66%. The “% increase in fatty acid oxidation (FAO)” value ([3]; patient alpha, 75 μM RSV alone) was 100%, the “% increase … Measured” value ([3]; patient alpha, Condition 1, 20 μM RSV alone) was 39% and the “% increase … Measured” value ([3]; patient alpha, Condition 2, 30 μM RSV alone) was 48%.
